# Legend:
# M2R mouse melanoma cells = assay: Phototoxicity assay (Neutral Red viability after illumination), M2R cells; type: cell-based; details: 4 hours incubation; for dark toxicity: kept in the dark, tested range; for LD50 (phototoxicity): washed, illuminated (λ>650 nm, 12 J/cm^2), survival 24 h after illumination
# Method: (§1) M2R mouse melanoma, H5V mouse endothelial and C6 rat glioma cells were cultured as monolayers in Dulbecco's modified Eagle's medium (DMEM)/F12 containing 25 mM HEPES, pH 7.4, 10% fetal bovine serum (FBS), glutamine (2 mM), penicillin (0.06 mg/ml), and streptomycin (0.1 mg/ml) (hereinafter referred to as the “Culture Medium”). Cells were grown at 37° C. in an 8% CO2-humidified atmosphere.
# (§2) To determine the photodynamic efficacy, cells were preincubated with increasing concentrations of the pigments in the dark for the times and conditions as indicated for the individual experiments. Unbound sensitizer was removed by washing the cells once with culture medium, and the plates were illuminated at room temperature from the bottom (λ>650 nm, 12 J/cm^2). The light source was a 100 W Halogen lamp (Osram, Germany) equipped with a 4-cm water filter. The cultures were placed in the culture incubator and cell survival was determined 24 h after illumination, by Neutral Red viability assay. Three kinds of controls were used: (i) light control: cells illuminated in the absence of pigments; (ii) dark control: cells treated with pigments but kept in the dark; and (iii) untreated cells that were kept in the dark.
# (§3) The phototoxicity of compounds 4 and 8 was determined as described in (ii) above in M2R mouse melanoma and H5V mouse endothelial cells. Cells were preincubated with increasing concentrations of the compound for 4 hours, washed and illuminated or kept in the dark.
# [1] = tested on: H5V mouse endothelial cells; assay: Phototoxicity assay (Neutral Red viability after illumination), H5V cells; type: cell-based; details: 4 hours incubation; for dark toxicity: kept in the dark, tested range; for LD50 (phototoxicity): washed, illuminated (λ>650 nm, 12 J/cm^2), survival 24 h after illumination
# Method: as §1, §2, §3
# [2] = Aqueous solubility and stability of solution; type: physicochemical
# Source text: Compound 4 is a pure and stable bacteriochlorophyll derivative isolated as a black purple crystalline powder. […] It is characterized by the following properties: (a) 4 main absorption peaks (750, 530, 385 and 330 nm). The strongest absorbance of light is near the infrared (≈750 nm) where tissue transmittance is the highest; (b) a very low cytotoxicity in the dark. Thus, tissue damage can be controlled by the light dose and length of exposure; (c) it is rapidly cleared from the body after administration. Therefore, potential skin photosensitization damage on exposure to ambient light or to the sun light is minimal; (d) generation of reactive oxygen species (ROS) is high because of efficient intersystem crossing (ISC).
# [3] = Biodistribution in CD1 nude mice (Pd content of organs); type: in vivo
# Method: Mice were sacrificed at different times following compound 4 injection (6 mg/kg), and Pd content was determined for the indicated organs. Each time point represents average of three mice±STD.
# (§4) Pigment 4 of the invention (6 mg/kg body) was injected to CD1 nude mice via tail vein. Mice were sacrificed at the indicated times, and samples of the indicated organs or tissues were placed and weighed in pre-weighted vials and immediately frozen on dry ice. For examination, each sample was thawed and homogenized (1:10 w/v) in double-distilled water. Aliquots of the homogenate (0.5 ml) were lyophilized in Eppendorff test tubes. Then 0.2 ml of HNO3 (70%, TraceSelect, Fluka) was added to each dry sample, incubated for 1 h at 90° C. and diluted in double-distilled water to 10 ml. Palladium concentrations were determined by ICP-MS. Background was determined for each organ/tissue on identical samples taken from untreated mice, and values were subtracted accordingly.
# rat C6 glioma xenografts = assay: Vascular shutdown and permeability (Evans Blue) after PDT of C6 glioma xenografts; type: in vivo, mice; details: 9 mg/kg, 100 mW/cm^2 for 5 min; 24 hours after PDT
# Method: FIGS. 8a-8h are photographs showing the selective effect of PDT in mice bearing rat C6 glioma xenografts and treated with compound 4. (a-d) PDT treated animal; (e-h) untreated animal. (a) before treatment; (b) 3 hours after PDT and Evans-Blue (EB) injection; (c) skin flap of the treated area, 24 hours after PDT; (d) axial slice of the treated tumor 24 hours after PDT; (e) before EB injection; (f) 3 hours after EB injection; (g) skin flap 24 hours after EB injection; (h) axial slice of the untreated tumor, 24 hours after EB injection. T-tumor; S-skin; M-muscle; E-edema.
# (§5) M2R or C6 cells (2×10^6) were implanted subcutaneously on the back of the mice; tumors developed to the treatment size (6-8 mm) within 2-3 weeks.
# Mice bearing C6 glioma tumor xenografts were treated with pigment 4 (9 mg/kg) and light (100 mW/cm^2 for 5 min) Immediately after treatment, Evans Blue (EB; 1% in PBS) was injected (0.5 ml, i.p.). Mice were photographed at 3 and 24 hours after treatment. The mice were sacrificed 24 hours after treatment and skin flap was made for each mouse and photographed. Then the tumor was removed with the skin above it, frozen for 1 hour at −20° C., and then axial slice was made and the slice was photographed. Control mice were injected with Evans Blue at the same time as the treated mice, and the protocol was continued as described above for all the mice together.
# [4] = tested on: choroid and overlying retina (choriocapillaries)
# Method: The WST11 powder was diluted in endotoxin-free sterile water at a concentration of 10 mg/ml, and shaken until complete dissolution. […] To calculate the volume to be injected, adjustment was made according to the rabbit weight. The appropriate volume solution was injected intravenously as a bolus via the marginal ear vein.
# Pigmented rabbits (136 “Fauve de Bourgogne” rabbits, 10-12 weeks old, 2.5-3 kg; Elevage des Pins, Epeigne-sur-Dême, France) were used. Acute and long term PDT effects on the rabbit eye were investigated for the following parameters: 1) 753 nm laser fluence (25 and 50 J/cm^2), Compound 4 (also designated WST11) doses (2.5 and 5 mg/kg) and distance to light illumination (DLI) of 1,5,10 and 15 minutes. 2) 689 nm laser fluence (10, 50, 100 J/cm^2), verteporfin doses (3, 6 and 12 mg/m^2) and a constant DLI of 5 min. These PDT parameters encompassed an array of effects on the choroid and the overlying retina were delivered for 83 seconds to induce occlusive, subthreshold occlusive and non-occlusive vascular events. Treated rabbit eyes were examined and followed by indirect ophthalmoscopy, fluorescein angiography (FA) and histology at various intervals after PDT.
# For the histology, enucleated eyes were dissected under a binocular microscope. A 4 mm biopsy punch was used to excise the full thickness of treated zones. These tissues were fixed in glutaraldehyde, processed in cacodylate buffer and embedded in plastic. Semi-thin sections were obtained using a microtome and counter-stained with hematoxilin-eosin. These sections were analyzed using phase contrast microscopy. Specific sites of interest were further processed for TEM. Ultrathin sections were obtained using an ultramicrotome and counter-stained with uranyl acetate.
# [5] = Pharmacokinetics in CD1 nude mice blood (Pd by ICP-MS); type: in vivo
# Method: as §4, with “FIG. 5 is a graph showing pharmacokinetics of compound 4 in CD1 nude mice blood. Following compound 4 injection (6 mg/kg), blood samples were collected from the same mouse at the indicated times and Pd was determined. Each time point represents average of three mice±STD. Pigment” for “Pigment”, “Then 0.2 ml of HNO3 (70%, TraceSelect, Fluka) was added to each dry sample, incubated for 1 h at 90° C. and diluted in double-distilled water to 10 ml.” left out
# M2R melanoma xenografts = assay: PDT of M2R melanoma xenografts in CD1 nude mice; type: in vivo; details: for mice cure rate: 6 mg/kg i.v.
# Method: as §5
# Stock solutions of the compounds of the invention were prepared prior to use by dissolving the dry pigment directly in PBS to the desired concentration for injection.
# The M2R tumor-bearing mice were anesthetized and the pigment was injected intravenously (i.v.) via the tail vein. The tumors were immediately illuminated transcutaneously for 5 min by 755 nm diode laser (CeramOptec, Germany) with light dose of either 30 J/cm2 (100 mW/cm2), 39 J/cm2 (130 mW/cm2) or 45 J/cm2 (150 mW/cm2). After the treatment, the mice were returned to the cage. […] In the light control group, the mice were illuminated with 45 J/cm^2.
# In these experiments (see section (vii) above), a dedicated medical laser matched to the peak absorption of 4 (CeramOptec, Germany, 755 nm) was used. In order to determine the optimal drug/light protocol, mice were treated with drug dose of 6 mg/kg and increasing the light intensity (FIG. 7).
compound,measurement,setting,value
"CC[C@H]1c2cc3[nH]c(c(CC(=O)OC)c4nc(cc5[nH]c(cc(n2)[C@@H]1C)c(C(C)=O)c5C)[C@@H](C)[C@@H]4CCC(=O)O)c(C(=O)NCCS(=O)(=O)[O-])c3C.[K+] [Compound 5, 3^1-oxo-15-methoxycarbonylmethyl-Rhodobacteriochlorin 13^1-(2-sulfoethyl)amide dipotassium salt]",dark toxicity,M2R mouse melanoma cells,no dark toxicity
same,LD50 (phototoxicity),M2R mouse melanoma cells,~5 µM
"Palladium 3^1-oxo-15-methoxycarbonylmethyl-Rhodobacteriochlorin 13^1,17^3-di(3-sulfopropyl)amide dipotassium salt [Compound 8]",dark toxicity,[1],without any dark toxicity
same,LD50 (phototoxicity),[1],~2 µM
same,dark toxicity,M2R mouse melanoma cells,without any dark toxicity
same,LD50 (phototoxicity),M2R mouse melanoma cells,~2 µM
Palladium 3^1-oxo-15-methoxycarbonylmethyl-Rhodobacteriochlorin 13^1-(2-sulfo-ethyl)amide dipotassium salt [Compound 4],stability of formulation,"[2]; 10 mg/ml in endotoxin-free sterile water, 4° C., protected from light",24 h
same,solubility,[2]; aqueous solution,soluble in aqueous solution
same,time after injection to background levels in all tissues,[3]; 6 mg/kg i.v.,≤ 30 min
same,time for pigment levels to drop to almost background levels in most of the examined organs,[3]; 6 mg/kg i.v.,20 to 30 min
same,dark toxicity,[1],without any dark toxicity
same,LD50 (phototoxicity),[1],~2 µM
same,effect on tumor blood perfusion (Evans Blue),rat C6 glioma xenografts,vascular shutdown
same,dark toxicity,M2R mouse melanoma cells,without any dark toxicity
same,LD50 (phototoxicity),M2R mouse melanoma cells,~2 µM
same,treated eyes with total choroidal occlusion associated with structural lesions of the overlying RPE and retina,"[4]; fluence 50 J/cm^2, 5 mg/kg, DLI 1 minute, 753 nm",100%
same,choriocapillaries occlusion and retinal lesions,"[4]; non-occlusive parameters: 25 J/cm^2, 5 mg/kg, DLI 10 minutes",did not induce choriocapillaries occlusion nor retinal lesions
same,duration of occlusion of the choriocapillaries after PDT,[4]; rabbit eye,up to one week
same,CL (clearance),"[5]; 6 mg/kg i.v., mice blood",0.89 mL/min
same,Kel (rate of elimination),"[5]; 6 mg/kg i.v., mice blood",0.42 min⁻¹
same,Vd (volume of distribution),"[5]; 6 mg/kg i.v., mice blood",2.12 mL
same,T0.5,"[5]; 6 mg/kg i.v., mice blood, monophasic",1.65 min
same,pigment cleared from blood within the first 10-min after i.v. injection,"[5]; mouse, in vivo",about 90%
same,mice cure rate,"M2R melanoma xenografts; 30 J/cm^2, 5 min illumination at 755 nm immediately after injection",43%
same,mice cure rate,"M2R melanoma xenografts; 45 J/cm^2, 5 min illumination at 755 nm immediately after injection",60%
same,mice survival,"M2R melanoma xenografts; 9 mg/kg i.v., 30 J/cm^2, 5 min illumination",70%
same,dark toxicity in animals,"M2R melanoma xenografts; 6 or 9 mg/kg, kept in the dark",No dark toxicity
"Pd-Bacteriopheophorbide a [Pd-Bpheid, reference compound]",time after injection to reach background levels,"[3]; mouse body, not shown",48 h
Zinc 3^1-oxo-15-methoxycarbonylmethyl-Rhodobacteriochlorin 13^1-(2-sulfoethyl) amide dipotassium salt [Compound 11],dark toxicity,M2R mouse melanoma cells,no dark toxicity
same,LD50 (phototoxicity),M2R mouse melanoma cells,~5 µM
verteporfin [reference compound],eyes with occlusive events (observed by FA),"[4]; 12 mg/m^2, 100 J/cm^2, DLI 5 minutes, 689 nm",89%
same,choriocapillaries occlusion on FA,"[4]; non-occlusive parameters: 3 mg/m^2, 10 J/cm^2, DLI 5 minutes",did not induce any choriocapillaries occlusion
